Experimental data from patent EP0972764A1, “Aminoalcohols and aminoketones as CNS active agents” (Universita Degli Studi di Firenze, priority 1998, dated 2000).
Each block holds one compound with its values, some of them ahead of it.

What was measured:
[1] = target: T1, S2 (Serotonine) receptors (Rattus norvegicus, UniProt P14842); test: In vitro inhibition of 3H-spiperone binding, S2 assay (rat brain membranes)
T1 construct: preparation of rat brain membrane enriched in D2 (Dopamine) or S2 (Serotonine) receptors; from tissue; host or cells: rat brain membranes
T1 sequence (P14842 whole entry): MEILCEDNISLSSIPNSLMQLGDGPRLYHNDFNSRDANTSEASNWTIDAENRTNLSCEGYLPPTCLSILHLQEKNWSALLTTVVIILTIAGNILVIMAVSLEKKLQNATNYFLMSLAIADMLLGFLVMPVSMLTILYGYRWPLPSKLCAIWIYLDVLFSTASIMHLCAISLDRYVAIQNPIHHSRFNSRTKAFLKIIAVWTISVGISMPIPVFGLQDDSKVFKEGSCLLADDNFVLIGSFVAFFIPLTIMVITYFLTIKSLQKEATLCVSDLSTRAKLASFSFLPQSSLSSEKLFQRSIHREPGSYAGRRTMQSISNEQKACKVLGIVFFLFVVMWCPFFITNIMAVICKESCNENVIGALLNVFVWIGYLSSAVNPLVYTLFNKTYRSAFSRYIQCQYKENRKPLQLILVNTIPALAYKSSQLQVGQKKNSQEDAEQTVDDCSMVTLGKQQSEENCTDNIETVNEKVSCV
Description: The compounds I, prepared according to the present invention, were tested in vitro on preparation of rat brain membrane enriched in D2 (Dopamine) or S2 (Serotonine) receptors accordingly known methods to perform inhibition experiments of the binding of ^3H-receptors ligands. For the S2 receptor assay the method described by List and Seeman (List S.J. and Seeman P. Proc. Natl. Acad. Sci. USA. 78:2620-2624, 1981) was used with slight adaptations.

D2 (Dopamine) receptors = target: T2, D2 (Dopamine) receptors (Rattus norvegicus, UniProt P61169); test: In vitro inhibition of 3H-spiperone binding, D2 assay (rat brain membranes)
T2 construct: preparation of rat brain membrane enriched in D2 (Dopamine) or S2 (Serotonine) receptors; from tissue; host or cells: rat brain membranes
T2 sequence (P61169 whole entry): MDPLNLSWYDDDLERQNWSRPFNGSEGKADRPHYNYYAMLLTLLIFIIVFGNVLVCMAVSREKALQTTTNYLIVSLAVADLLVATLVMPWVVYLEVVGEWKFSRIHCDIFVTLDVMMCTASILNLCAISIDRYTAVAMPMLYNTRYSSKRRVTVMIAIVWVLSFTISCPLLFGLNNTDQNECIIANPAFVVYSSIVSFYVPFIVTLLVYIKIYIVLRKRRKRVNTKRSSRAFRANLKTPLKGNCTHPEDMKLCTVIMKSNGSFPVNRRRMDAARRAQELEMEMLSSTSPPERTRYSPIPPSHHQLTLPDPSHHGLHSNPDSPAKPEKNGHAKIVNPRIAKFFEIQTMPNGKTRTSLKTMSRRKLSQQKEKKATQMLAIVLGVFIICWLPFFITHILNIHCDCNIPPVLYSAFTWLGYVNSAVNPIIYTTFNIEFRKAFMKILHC
Description: The compounds I, prepared according to the present invention, were tested in vitro on preparation of rat brain membrane enriched in D2 (Dopamine) or S2 (Serotonine) receptors accordingly known methods to perform inhibition experiments of the binding of ^3H-receptors ligands.
For the D2 assays the method described by Ferretti et al. (Life Sci 42(24):2457-65, 1988) was used.

[2] = First pass cerebral extraction in the rat (blood brain barrier crossing of radiolabelled compound); type: in vivo; conditions: intracardiac injection, physiological rCBF range 0.8-1 ml/min/g
Description: Compounds I, prepared according to the present invention and containing radioactive isotopes were tested inrespect of their capacity to cross the brain blood barrier, since CNS receptors tracers should be able to pass through the intact blood brain barrier following intravenous injection.
Measures of the rat brain extraction of the compounds was determined following known procedures based on the use of labelled reference substances with known extraction.
In the rat the first pass cerebral extraction of N-benzyl-3-(4-fluoro-2-^125I-iodo-fenil)-hydroxypropylamine [compound I with R1 = H and R2 = Benzyl, Q = single bond Wn = 2-^125I, 4-F, n = 2, A = OH, m = 0, a = single bond] was evaluated measuring the radioactive compounds concentration in the brain, after an intracardiac injection of a mixture of the tested compound, a completely extracted tracer, as the albumin microspheres labelled with ^99mTc (undergoing to a sort of entrapment in the brain microvasculature) and a non extracted tracer as the sodium salt of hortoiodoippuric acid.

Compound: 2-[3-(4-fluorophenyl)-3-oxopropyl]-tetrahydro-2H-isoindole
- binding affinity, column T1 ([1]; compounds at 10 µM concentration, rat brain membrane, unit not given, column head T1, text says S2): 65
- binding affinity towards D2 receptors (column D2) (D2 (Dopamine) receptors; compounds at 10 µM concentration, rat brain membrane, unit not given): 12

- IC50 ([1]; inhibition of ^3H-spiperone binding, S2 assay, tested in its racemic form): 18.7 µM
- IC50 (D2 (Dopamine) receptors; inhibition of ^3H-spiperone binding, D2 assay, tested in its racemic form): 34 µM
Compound: OC(CCNCc1ccccc1)c1ccc(F)cc1Br (racemic) [N-benzyl-3-(2-bromo-4-fluorophenyl)-3-hydroxypropylamine]

- cerebral tissue extraction fraction [2]: about 50%
Compound: OC(CCNCc1ccccc1)c1ccc(F)cc1[125I] (centres unmarked) [N-benzyl-3-(4-fluoro-2-^125I-iodo-fenil)-hydroxypropylamine]
